Marks after values point to notes of the source that are not given here.
Assays:
[1] = system: anesthetized dog; assay: Cardiovascular effects following intravenous injection in the anesthetized dog
[2] = system: stimulant abusers; assay: Abuse liability of intravenous L-lysine-d-amphetamine in stimulant abusers; details: d-amphetamine 20 mg
[3] = system: rats; assay: Locomotor activity after intranasal administration with and without CMC; type: in vivo, Sprague-Dawley rats; details: rats, intranasal 1.0 mg/kg, 1 h
Excerpt: The CMC drug mixtures were suspended thoroughly before each dose was delivered.

[4] = system: rats; assay: Horizontal locomotor activity after oral administration; type: in vivo, Sprague-Dawley rats; design: Time of Peak (Counts per 0.2 h): unit not given here; details: rats, oral gavage 6 mg/kg
[5] = system: rats; assay: Locomotor activity after intravenous administration; type: in vivo, Sprague-Dawley rats; details: rat, 1.0 mg/kg
[6] = Oral bioavailability at escalating doses (LC/MS/MS); details: rat; for AUC0-8 of d-amphetamine / AUCinf of d-amphetamine / F of d-amphetamine / Tmax of d-amphetamine / Cmax of d-amphetamine / AUCinf alt. calc. of d-amphetamine: oral; for Cmax of d-amphetamine: LC/MS/MS; for AUCinf alt. calc. of d-amphetamine: WinNonlin, in ng·h/mL
[7] = Intranasal bioavailability (LC/MS/MS); details: rat, intranasal, 3 mg/kg
[8] = IV, L-lysine-d-amphetamine 50 mg

d-amphetamine
DAP % Change ([1]; iv 0.202 mg/kg, Time 0): 0%
LVP % Change ([1]; iv 0.202 mg/kg, Time 0): 0%
MAP % Change ([1]; iv 0.202 mg/kg, Time 0): 0%
MAP mean arterial pressure ([1]; iv 0.202 mg/kg, Time 0): 84 mmHg
SAP % Change ([1]; iv 0.202 mg/kg, Time 0): 0%
SAP systolic arterial pressure ([1]; iv 0.202 mg/kg, Time 0): 111 mmHg
DAP % Change ([1]; iv 0.202 mg/kg, Time 5): 117%
LVP % Change ([1]; iv 0.202 mg/kg, Time 5): 107%
MAP % Change ([1]; iv 0.202 mg/kg, Time 5): 109%
MAP mean arterial pressure ([1]; iv 0.202 mg/kg, Time 5): 176 mmHg
SAP % Change ([1]; iv 0.202 mg/kg, Time 5): 97%
SAP systolic arterial pressure ([1]; iv 0.202 mg/kg, Time 5): 218 mmHg
DAP % Change ([1]; iv 0.202 mg/kg, Time 15): 45%
LVP % Change ([1]; iv 0.202 mg/kg, Time 15): 52%
MAP % Change ([1]; iv 0.202 mg/kg, Time 15): 49%
MAP mean arterial pressure ([1]; iv 0.202 mg/kg, Time 15): 125 mmHg
SAP % Change ([1]; iv 0.202 mg/kg, Time 15): 52%
SAP systolic arterial pressure ([1]; iv 0.202 mg/kg, Time 15): 168 mmHg
DAP % Change ([1]; iv 0.202 mg/kg, Time 25): 30%
LVP % Change ([1]; iv 0.202 mg/kg, Time 25): 37%
MAP % Change ([1]; iv 0.202 mg/kg, Time 25): 31%
MAP mean arterial pressure ([1]; iv 0.202 mg/kg, Time 25): 110 mmHg
SAP % Change ([1]; iv 0.202 mg/kg, Time 25): 34%
SAP systolic arterial pressure ([1]; iv 0.202 mg/kg, Time 25): 148 mmHg
DAP % Change ([1]; iv 0.202 mg/kg, Time 30): 20%
LVP % Change ([1]; iv 0.202 mg/kg, Time 30): 30%
MAP % Change ([1]; iv 0.202 mg/kg, Time 30): 23%
MAP mean arterial pressure ([1]; iv 0.202 mg/kg, Time 30): 103 mmHg
SAP % Change ([1]; iv 0.202 mg/kg, Time 30): 26%
SAP systolic arterial pressure ([1]; iv 0.202 mg/kg, Time 30): 140 mmHg
DAP % Change ([1]; iv 0.404 mg/kg, Time 0): 0%
LVP % Change ([1]; iv 0.404 mg/kg, Time 0): 0%
MAP % Change ([1]; iv 0.404 mg/kg, Time 0): 0%
MAP mean arterial pressure ([1]; iv 0.404 mg/kg, Time 0): 101 mmHg
SAP % Change ([1]; iv 0.404 mg/kg, Time 0): 0%
SAP systolic arterial pressure ([1]; iv 0.404 mg/kg, Time 0): 139 mmHg
DAP % Change ([1]; iv 0.404 mg/kg, Time 5): 88%
LVP % Change ([1]; iv 0.404 mg/kg, Time 5): 79%
MAP % Change ([1]; iv 0.404 mg/kg, Time 5): 85%
MAP mean arterial pressure ([1]; iv 0.404 mg/kg, Time 5): 187 mmHg
SAP % Change ([1]; iv 0.404 mg/kg, Time 5): 73%
SAP systolic arterial pressure ([1]; iv 0.404 mg/kg, Time 5): 240 mmHg
DAP % Change ([1]; iv 0.404 mg/kg, Time 15): 44%
LVP % Change ([1]; iv 0.404 mg/kg, Time 15): 43%
MAP % Change ([1]; iv 0.404 mg/kg, Time 15): 43%
MAP mean arterial pressure ([1]; iv 0.404 mg/kg, Time 15): 145 mmHg
SAP % Change ([1]; iv 0.404 mg/kg, Time 15): 39%
SAP systolic arterial pressure ([1]; iv 0.404 mg/kg, Time 15): 193 mmHg
DAP % Change ([1]; iv 0.404 mg/kg, Time 25): 17%
LVP % Change ([1]; iv 0.404 mg/kg, Time 25): 26%
MAP % Change ([1]; iv 0.404 mg/kg, Time 25): 20%
MAP mean arterial pressure ([1]; iv 0.404 mg/kg, Time 25): 122 mmHg
SAP % Change ([1]; iv 0.404 mg/kg, Time 25): 19%
SAP systolic arterial pressure ([1]; iv 0.404 mg/kg, Time 25): 166 mmHg
DAP % Change ([1]; iv 0.404 mg/kg, Time 30): 11%
LVP % Change ([1]; iv 0.404 mg/kg, Time 30): 22%
MAP % Change ([1]; iv 0.404 mg/kg, Time 30): 16%
MAP mean arterial pressure ([1]; iv 0.404 mg/kg, Time 30): 117 mmHg
SAP % Change ([1]; iv 0.404 mg/kg, Time 30): 16%
SAP systolic arterial pressure ([1]; iv 0.404 mg/kg, Time 30): 160 mmHg
DAP % Change ([1]; iv 2.02 mg/kg, Time 0): 0%
LVP % Change ([1]; iv 2.02 mg/kg, Time 0): 0%
MAP % Change ([1]; iv 2.02 mg/kg, Time 0): 0%
MAP mean arterial pressure ([1]; iv 2.02 mg/kg, Time 0): 115 mmHg
SAP % Change ([1]; iv 2.02 mg/kg, Time 0): 0%
SAP systolic arterial pressure ([1]; iv 2.02 mg/kg, Time 0): 158 mmHg
DAP % Change ([1]; iv 2.02 mg/kg, Time 5): 48%
LVP % Change ([1]; iv 2.02 mg/kg, Time 5): 40%
MAP % Change ([1]; iv 2.02 mg/kg, Time 5): 47%
MAP mean arterial pressure ([1]; iv 2.02 mg/kg, Time 5): 169 mmHg
SAP % Change ([1]; iv 2.02 mg/kg, Time 5): 44%
SAP systolic arterial pressure ([1]; iv 2.02 mg/kg, Time 5): 228 mmHg
DAP % Change ([1]; iv 2.02 mg/kg, Time 15): 23%
LVP % Change ([1]; iv 2.02 mg/kg, Time 15): 24%
MAP % Change ([1]; iv 2.02 mg/kg, Time 15): 23%
MAP mean arterial pressure ([1]; iv 2.02 mg/kg, Time 15): 142 mmHg
SAP % Change ([1]; iv 2.02 mg/kg, Time 15): 24%
SAP systolic arterial pressure ([1]; iv 2.02 mg/kg, Time 15): 196 mmHg
DAP % Change ([1]; iv 2.02 mg/kg, Time 25): 17%
LVP % Change ([1]; iv 2.02 mg/kg, Time 25): 19%
MAP % Change ([1]; iv 2.02 mg/kg, Time 25): 17%
MAP mean arterial pressure ([1]; iv 2.02 mg/kg, Time 25): 135 mmHg
SAP % Change ([1]; iv 2.02 mg/kg, Time 25): 20%
SAP systolic arterial pressure ([1]; iv 2.02 mg/kg, Time 25): 189 mmHg
DAP % Change ([1]; iv 2.02 mg/kg, Time 30): 13%
LVP % Change ([1]; iv 2.02 mg/kg, Time 30): 16%
MAP % Change ([1]; iv 2.02 mg/kg, Time 30): 12%
MAP mean arterial pressure ([1]; iv 2.02 mg/kg, Time 30): 129 mmHg
SAP % Change ([1]; iv 2.02 mg/kg, Time 30): 16%
SAP systolic arterial pressure ([1]; iv 2.02 mg/kg, Time 30): 183 mmHg
Time of mean peak plasma level of d-amphetamine ([2]; IV): 5 min
Time of mean peak responses ([2]; IV): 15 min
Mean maximum response on Subject Liking VAS vs placebo [2, 8]: significantly greater than placebo
Subjects (of 9) who would take the treatment again [2, 8]: Six
Mean peak plasma level of d-amphetamine ([2]; stimulant abusers, IV over 2 minutes, L-lysine-d-amphetamine 50 mg): 77.7 ng/mL
Total Activity Counts (1 h) [3]: 858
Total Activity Counts Above Baseline [3]: 686
Peak of activity (Counts per 0.2 h) ([4]; 5 h experiment): 291 Counts per 0.2 h
Time of Last Count Above 200 per 0.2 h ([4]; 5 h experiment): 2.6 h
Time of Peak (Counts per 0.2 h) ([4]; 5 h experiment): 0.6
Total Activity Counts ([4]; 5 h experiment): 515
Total Activity Counts Above Baseline ([4]; 5 h experiment): 0
Peak of activity (Counts per 0.2 h) ([4]; 12 h experiment): 223 Counts per 0.2 h
Time of Last Count Above 200 per 0.2 h ([4]; 12 h experiment): 6.4 h
Time of Peak (Counts per 0.2 h) ([4]; 12 h experiment): 0.6
Total Activity Counts ([4]; 12 h experiment): 6622
Total Activity Counts Above Baseline ([4]; 12 h experiment): 5686
Total Activity Counts (3 h) [5]: 1659
Activity above baseline, Percent Amp ([5]; 3 h): 100%
Total Activity Counts Above Baseline ([5]; 3 h): 1355
AUC (0-1.5) of d-amphetamine ([6]; in vivo, po, 60 mg/kg): 14,281** ng · h/mL
AUC0-8 of d-amphetamine ([6]; 3 mg/kg): 885 ng·h/mL
AUCinf of d-amphetamine ([6]; 3 mg/kg): 921 ng·h/mL
F of d-amphetamine ([6]; 3 mg/kg): 84%
Tmax of d-amphetamine ([6]; 3 mg/kg): 90 min
Cmax of d-amphetamine ([6]; 3 mg/kg): 217.2 ng/mL
AUCinf alt. calc. of d-amphetamine ([6]; 3 mg/kg): 1,059
AUC0-8 of d-amphetamine ([6]; 6 mg/kg): 1,319 ng · h/mL
AUCinf of d-amphetamine ([6]; 6 mg/kg): 1,362 ng · h/mL
F of d-amphetamine ([6]; 6 mg/kg): 62%
Tmax of d-amphetamine ([6]; 6 mg/kg): 15 min
Cmax of d-amphetamine ([6]; 6 mg/kg): 815.3 ng/mL
AUCinf alt. calc. of d-amphetamine ([6]; 6 mg/kg): 1429
AUC0-8 of d-amphetamine ([6]; 12 mg/kg): 4,252 ng · h/mL
AUCinf of d-amphetamine ([6]; 12 mg/kg): 4,428 ng · h/mL
F of d-amphetamine ([6]; 12 mg/kg): 101%
Tmax of d-amphetamine ([6]; 12 mg/kg): 15 min
Cmax of d-amphetamine ([6]; 12 mg/kg): 1,533.1 ng/mL
AUCinf alt. calc. of d-amphetamine ([6]; 12 mg/kg): 4,636
AUCinf of d-amphetamine ([6]; 60 mg/kg): 48,707 ng · h/mL
F of d-amphetamine ([6]; 60 mg/kg): 223%
Tmax of d-amphetamine ([6]; 60 mg/kg): 60 min
Cmax of d-amphetamine ([6]; 60 mg/kg): 13,735 ng/mL
AUCinf alt. calc. of d-amphetamine ([6]; 60 mg/kg): 48,707
Tmax of d-amphetamine ([6]; […]): 30 min
AUC0-1 of d-amphetamine [7]: 1032 ng·h/mL
AUCinf of d-amphetamine [7]: 7291 ng·h/mL
Cmax of d-amphetamine ([7]; LC/MS/MS): 1962.9 ng/mL
AUCinf alt. calc. of d-amphetamine ([7]; in ng·h/mL): 1,267

Reference: patent US20090181898A1, “ABUSE-RESISTANT A[…]” (SHIRE LLC, priority 2002, published 2009)
